Assay results from patent US11931431B2, “PSMA-targeted radiopharmaceutical for diagnosing and treating prostate cancer” (FUTURECHEM CO., LTD, priority 2018, dated 2024).
Entries after “also recorded” stand apart in the source; their conditions may differ. Like-named read-outs stand apart in the source and are kept apart here. Each block holds one compound with its values, some of them ahead of it.

How the values were obtained:
[1] = target: PSMA (Homo sapiens, UniProt Q04609); assay: Measurement of binding capacity: competition with [^125I]30 on 22RV1 cells; set-up: host or cells: 22RV1 human prostate cancer cells
Chain of PSMA (Q04609 whole entry): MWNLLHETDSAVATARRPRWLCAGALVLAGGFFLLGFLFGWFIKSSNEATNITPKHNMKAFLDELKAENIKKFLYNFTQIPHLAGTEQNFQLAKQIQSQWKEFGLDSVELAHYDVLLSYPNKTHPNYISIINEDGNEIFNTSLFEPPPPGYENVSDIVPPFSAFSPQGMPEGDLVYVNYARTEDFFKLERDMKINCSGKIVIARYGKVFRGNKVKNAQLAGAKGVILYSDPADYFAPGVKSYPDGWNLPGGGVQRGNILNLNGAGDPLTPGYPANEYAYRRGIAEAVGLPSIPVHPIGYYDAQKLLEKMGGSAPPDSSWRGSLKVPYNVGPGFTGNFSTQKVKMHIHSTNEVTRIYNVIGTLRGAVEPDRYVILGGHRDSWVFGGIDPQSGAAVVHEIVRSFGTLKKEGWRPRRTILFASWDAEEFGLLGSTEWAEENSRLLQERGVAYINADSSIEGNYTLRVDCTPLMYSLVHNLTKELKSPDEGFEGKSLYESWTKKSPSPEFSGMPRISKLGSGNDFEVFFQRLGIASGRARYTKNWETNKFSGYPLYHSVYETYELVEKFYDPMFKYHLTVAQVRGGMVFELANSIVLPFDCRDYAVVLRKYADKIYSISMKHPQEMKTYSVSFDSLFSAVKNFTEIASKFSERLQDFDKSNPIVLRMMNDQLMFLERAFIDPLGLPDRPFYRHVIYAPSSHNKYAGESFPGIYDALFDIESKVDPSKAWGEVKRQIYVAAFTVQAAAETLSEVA
Procedure: To confirm the binding capacity of the compounds of the present invention to PSMA, the following experiment was performed.
RPMI1640 supplemented with 1% BSA (bovine serum albumin) was used as a buffer solution.
[^125I]30 (0.1 nM) obtained in Comparative Example 1 was added to a vessel containing 22RV1 cells (5×10^4), to which the compound represented by formula 1 was loaded at 9 concentrations (1.00×10^−4˜1.00×10^−12 M), followed by stirring at 37° C. for 2 hours. Upon completion of the stirring, the vessel was washed with PBS solution (2 mL) three times, and then the radioactivity was measured using a gamma counter (2480 WIZARD2 Gamma Counter PerkinElmer Co., MA). The 50% inhibition concentration (IC50) for each compound was calculated using a GraphPad Prism program (GraphPad Software, Inc., CA)
(Maresca, K. P. et al., 2009, J. Med. Chem. 52, 347-357)

[2] = Measurement of lipophilicity (log P), n-octanol/PBS; type: physicochemical; settings: mean of 3
Procedure: Each of the [^68Ga]1 compounds (1˜2 mci) synthesized in Example 14 was transferred into a vial, and the solvent was removed, to which 1 mL of n-octanol and 1 mL of PBS were added, and the lid was well closed, followed by mixing with a vortex for 1 minute. After the layers were separated, 0.1 mL was taken from each layer and the radiation dose was measured. The radiation dose was measured by repeating 3 times, and the mean value was obtained.

[3] = test system: PSMA^+ PC-3 PIP tumors; assay: MicroPET/CT imaging of mice transplanted with prostate cancer cell lines; type: in vivo, nude mouse
Procedure: A tumor model was prepared by subcutaneously injecting PSMA^+ PC-3 PIP cells (a human prostate cancer cell line) to the right side of the nude mouse hind leg. Each of the ^68Ga-labeled compounds [^68Ga]1e, [^68Ga]1g, [^68Ga]1h and [^68Ga]1k was intravenously injected with 5.5 to 6.5 MBq (148-175 μCi/200 μL), and PET/CT images were obtained using small animal INVEON PET/CT (Siemens medical solutions, Knoxville, USA) for 60 minutes. After 150 minutes, 270 minutes, and 390 minutes, PET/CT images were also obtained for 30 minutes. The obtained PET/CT image results were quantitatively analyzed using Inveon™ Research Workplace (IRW).
FIGS. 1, 2, 3, and 4 are graphs showing the quantitative analysis results of MicorPET/CT images for [^68Ga]1e, [^68Ga]1g, [^68Ga]1h, and [^68Ga]1k in % injected dose (ID)/g, and summarized in Tables 3, 4, 5, and 6, respectively.

[4] = 22RV1 cells, [^125I]30 0.1 nM, 37° C., 2 hours, read-out: IC50
[5] = 22RV1 cells, [^125I]30 0.1 nM, 37° C., 2 hours, read-out: Ki value

IC50 [1, 4]: 237 ± 47.1 nM | Ki [1, 5]: 18.7 ± 1.87 nM
SMILES: O=C(O)CC[C@H](NC(=O)N[C@@H](CCCCNC(=O)N(Cc1cn(CCOCCNC(=O)CN2CCN3CCN4CCN(CC2)CC(=O)[O][Ga]([O]C(=O)C3)[O]C(=O)C4)nn1)c1ccncc1)C(=O)O)C(=O)O [Ga-1b]

SMILES: O=C(O)CCC(NC(=O)NC(CCCCN(CC(=O)O)C(=O)COCCOCCNC(=O)C(CCCCNC(=O)CCCc1ccc(I)cc1)NC(=O)CN1CCN2CCN3CCN(CC1)CC(=O)[O][Ga]([O]C(=O)C2)[O]C(=O)C3)C(=O)O)C(=O)O (stereo not drawn) [Ga-1h]
IC50 [1]: 11 ± 0.35 nM | Ki [1]: 3 ± 0.1 nM | binding force / binding capacity to PSMA, in words ([1]; 22RV1 cells): higher binding capacity than the compound Ga-1e; also recorded: highest binding capacity

IC50 [1, 4]: 1140 ± 82.4 nM | Ki [1, 5]: 282 ± 20.4 nM
SMILES: O=C(O)CC[C@H](NC(=O)N[C@@H](CCC(=O)N(CCOCCOCCNC(=O)CN1CCN2CCN3CCN(CC1)CC(=O)[O][Ga]([O]C(=O)C2)[O]C(=O)C3)CCC(=O)O)C(=O)O)C(=O)O [Ga-1o]

IC50 [1, 4]: 25.7 ± 5.06 nM | Ki [1, 5]: 8.12 ± 1.6 nM
SMILES: O=C(O)CC[C@H](NC(=O)N[C@@H](CCCCN(CC(=O)O)C(=O)COCCOCCNC(=O)[C@H](CCCCNC(=O)CCCc1ccccc1)NC(=O)CN1CCN2CCN3CCN(CC1)CC(=O)[O][Ga]([O]C(=O)C2)[O]C(=O)C3)C(=O)O)C(=O)O [Ga-1f]
binding force / binding capacity to PSMA, in words ([1]; 22RV1 cells): higher binding capacity than the compound Ga-1e

SMILES: O=C(O)CCC(NC(=O)NC(CCCCN(CC(=O)O)C(=O)COCCOCCNC(=O)CN1CCN2CCN3CCN(CC1)CC(=O)[O][Ga]([O]C(=O)C2)[O]C(=O)C3)C(=O)O)C(=O)O (stereo not drawn) [Ga-1e]
IC50 [1, 4]: 47.4 ± 1.78 nM | Ki [1, 5]: 12.9 ± 0.49 nM

logP [2]: −3.06
SMILES: O=C(O)CC[C@H](NC(=O)N[C@@H](CCC(=O)N(CCOCCOCCNC(=O)CN1CCN2CCN3CCN(CC1)CC(=O)[O][68Ga]([O]C(=O)C2)[O]C(=O)C3)CC(=O)O)C(=O)O)C(=O)O [[^68Ga]1n]

intake of mouse organ: Bladder ([3]; 10 min after injection): 4.12 ± 0.45 % ID/g | intake of mouse organ: Heart ([3]; 10 min after injection): 21.67 ± 0.44 % ID/g | intake of mouse organ: Kidney ([3]; 10 min after injection): 11.16 ± 1.35 % ID/g | intake of mouse organ: Liver ([3]; 10 min after injection): 11.99 ± 4.72 % ID/g | intake of mouse organ: Muscle ([3]; 10 min after injection): 2.26 ± 0.75 % ID/g | intake of mouse organ: Tumor (PIP) ([3]; 10 min after injection): 1.85 ± 0.25 % ID/g | intake of mouse organ: Bladder ([3]; 20 min after injection): 4.68 ± 0.22 % ID/g | intake of mouse organ: Heart ([3]; 20 min after injection): 20.10 ± 0.29 % ID/g | intake of mouse organ: Kidney ([3]; 20 min after injection): 11.21 ± 1.62 % ID/g | intake of mouse organ: Liver ([3]; 20 min after injection): 11.09 ± 3.46 % ID/g | intake of mouse organ: Muscle ([3]; 20 min after injection): 2.91 ± 1.21 % ID/g | intake of mouse organ: Tumor (PIP) ([3]; 20 min after injection): 3.22 ± 0.38 % ID/g | intake of mouse organ: Bladder ([3]; 30 min after injection): 4.68 ± 0.45 % ID/g | intake of mouse organ: Heart ([3]; 30 min after injection): 18.33 ± 0.13 % ID/g | intake of mouse organ: Kidney ([3]; 30 min after injection): 10.89 ± 1.36 % ID/g | intake of mouse organ: Liver ([3]; 30 min after injection): 10.04 ± 2.73 % ID/g | intake of mouse organ: Muscle ([3]; 30 min after injection): 3.09 ± 0.91 % ID/g | intake of mouse organ: Tumor (PIP) ([3]; 30 min after injection): 3.94 ± 0.38 % ID/g | intake of mouse organ: Bladder ([3]; 40 min after injection): 4.75 ± 0.21 % ID/g | intake of mouse organ: Heart ([3]; 40 min after injection): 17.22 ± 0.35 % ID/g | intake of mouse organ: Kidney ([3]; 40 min after injection): 11.06 ± 1.02 % ID/g | intake of mouse organ: Liver ([3]; 40 min after injection): 9.31 ± 2.32 % ID/g | intake of mouse organ: Muscle ([3]; 40 min after injection): 3.32 ± 1.20 % ID/g | intake of mouse organ: Tumor (PIP) ([3]; 40 min after injection): 4.40 ± 0.36 % ID/g | intake of mouse organ: Bladder ([3]; 50 min after injection): 4.83 ± 0.18 % ID/g | intake of mouse organ: Heart ([3]; 50 min after injection): 16.06 ± 0.38 % ID/g | intake of mouse organ: Kidney ([3]; 50 min after injection): 10.80 ± 1.20 % ID/g | intake of mouse organ: Liver ([3]; 50 min after injection): 8.73 ± 2.11 % ID/g | intake of mouse organ: Muscle ([3]; 50 min after injection): 3.24 ± 1.07 % ID/g | intake of mouse organ: Tumor (PIP) ([3]; 50 min after injection): 5.03 ± 0.33 % ID/g | intake of mouse organ: Bladder ([3]; 60 min after injection): 4.81 ± 0.24 % ID/g | intake of mouse organ: Heart ([3]; 60 min after injection): 15.03 ± 0.27 % ID/g | intake of mouse organ: Kidney ([3]; 60 min after injection): 10.96 ± 1.18 % ID/g | intake of mouse organ: Liver ([3]; 60 min after injection): 8.22 ± 1.79 % ID/g | intake of mouse organ: Muscle ([3]; 60 min after injection): 3.49 ± 1.28 % ID/g | intake of mouse organ: Tumor (PIP) ([3]; 60 min after injection): 5.45 ± 0.16 % ID/g | intake of mouse organ: Bladder ([3]; 150 min after injection): 18.10 ± 6.51 % ID/g | intake of mouse organ: Heart ([3]; 150 min after injection): 7.85 ± 1.63 % ID/g | intake of mouse organ: Kidney ([3]; 150 min after injection): 11.40 ± 1.13 % ID/g | intake of mouse organ: Liver ([3]; 150 min after injection): 5.00 ± 1.41 % ID/g | intake of mouse organ: Muscle ([3]; 150 min after injection): 2.75 ± 1.20 % ID/g | intake of mouse organ: Tumor (PIP) ([3]; 150 min after injection): 11.00 ± 2.12 % ID/g | intake of mouse organ: Bladder ([3]; 270 min after injection): 20.10 ± 4.53 % ID/g | intake of mouse organ: Heart ([3]; 270 min after injection): 5.10 ± 0.85 % ID/g | intake of mouse organ: Kidney ([3]; 270 min after injection): 9.25 ± 0.78 % ID/g | intake of mouse organ: Liver ([3]; 270 min after injection): 3.60 ± 0.71 % ID/g | intake of mouse organ: Muscle ([3]; 270 min after injection): 2.15 ± 0.78 % ID/g | intake of mouse organ: Tumor (PIP) ([3]; 270 min after injection): 15.70 ± 4.24 % ID/g | intake of mouse organ: Bladder ([3]; 390 min after injection): 14.25 ± 0.64 % ID/g | intake of mouse organ: Heart ([3]; 390 min after injection): 3.80 ± 1.41 % ID/g | intake of mouse organ: Kidney ([3]; 390 min after injection): 7.70 ± 0.71 % ID/g | intake of mouse organ: Liver ([3]; 390 min after injection): 2.25 ± 0.64 % ID/g | intake of mouse organ: Muscle ([3]; 390 min after injection): 1.20 ± 0.56 % ID/g | intake of mouse organ: Tumor (PIP) ([3]; 390 min after injection): 18.25±4.17 % ID/g | excretion, in words ([3]; MicroPET/CT): rapidly excreted out of the body
SMILES: O=C(O)CCC(NC(=O)NC(CCCCN(CC(=O)O)C(=O)COCCNC(=O)C(CCCCNC(=O)CCCc1ccc(I)cc1)NC(=O)CN1CCN2CCN3CCN(CC1)CC(=O)[O][68Ga]([O]C(=O)C2)[O]C(=O)C3)C(=O)O)C(=O)O (stereo not drawn) [[^68Ga]1k]
residence time in the blood, in words ([3]; MicroPET/CT): residence time in the blood was increased | tumor intake over time, in words ([3]; MicroPET/CT): tumor intake continued to increase after 390 minutes

SMILES: O=C(O)CCC(NC(=O)NC(CCC(=O)N(CC(=O)O)Cc1cn(CCOCCNC(=O)CN2CCN3CCN4CCN(CC2)CC(=O)[O][Ga]([O]C(=O)C3)[O]C(=O)C4)nn1)C(=O)O)C(=O)O (stereo not drawn) [Ga-1p]
IC50 [1, 4]: 703 ± 145 nM | Ki [1, 5]: 130 ± 26.6 nM
